This is an account of results in PubChem BioAssay AID434987 (Southern Research Specialized Biocontainment Screening …, 2010).

The source made the active and inactive calls. No rule for the calls is given here. Where only a bound is given, the exact number is not on record here.

The test system of the assay is M. tuberculosis H37Rv growth inhibition with meropenem. As to the kind of experiment: dose response, H37Rv, with and without meropenem (AID 434987).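 Also: growth over 7 days at 37 °C before Alamar Blue read on day 9.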
The mark [1] stands for this setting: M. tuberculosis H37Rv growth inhibition, measured here: IC50 without meropenem.
[2] abbreviates: M. tuberculosis H37Rv growth inhibition, measured here: IC90 without meropenem.
[3] abbreviates: measured here: IC90 with meropenem.

For the compound `O=C(N/N=C/c1c(O)n(Cc2ccc(F)cc2)c(=S)[nH]c1=O)c1ccncc1`, the IC50 (commonly the concentration needed to halve the response being measured) is 7.75 µM (inactive). The compound also gave an IC50 under setting [1] of 11.5 µM. Further, the IC90 (in general, the point of the concentration-response curve where the effect stands at 90%) under setting [2] is 12.9 µM. The concentration for an effect of 90% (IC90) under setting [3] stood at 9.8 µM.

`C=CCOc1ccc(C2N3CC4(C)CN2CC(CCC)(C3)C4=O)cc1` (configuration not stated): the IC50 is > 100 µM (inactive). The compound also displayed an IC50 under setting [1] above 100 µM. The same compound showed a concentration for an effect of 90% (IC90) under setting [2] above 100 µM. The compound further returned an IC90 under setting [3] above 100 µM.

Turning to `Cc1ccccc1NC(=O)/C(C#N)=C\c1cc(C)n(-c2ccc(C(=O)O)cc2)c1C`, the IC50 is 21 µM (inactive). The IC50 under setting [1] was determined as 46.8 µM. Under setting [2], this compound returned an IC90 of 76.7 µM. The compound also gave an IC90 under setting [3] of 51.1 µM.

Turning to `O=C1C2ON(c3ccc(Br)cc3)C(c3cccnc3)C2C(=O)N1C1CCCCC1` (configuration not stated), the IC50 was > 100 µM (inactive). Also, the half-inhibitory concentration (IC50) under setting [1] was above 100 µM. For the same compound, the IC90 under setting [2] was above 100 µM. The IC90 under setting [3] is above 100 µM.

As to `CCN(CC)c1ccc(C(=O)n2cnc3ccccc32)cc1`, the IC50 was 70.3 µM (inactive). For the same compound, the IC50 under setting [1] stood at 91.6 µM. Further, the 90% effect concentration (IC90) under setting [2] was above 100 µM. Also, under setting [3], the 90% effect concentration (IC90) was above 100 µM.

With `COCCNC(=S)N/N=C1\CC(C)CC(C)(C)C1` (configuration not stated), the IC50 is 24.5 µM (inactive). Also, the concentration for half-maximal inhibition (IC50) under setting [1] was determined as 32.4 µM. In addition, the IC90 under setting [2] stood at 41.1 µM. The compound also gave an IC90 under setting [3] of 27.5 µM.

As for `CCCCCCC(=O)Nc1nc(C)c(-c2csc(Nc3cc(Cl)ccc3OC)n2)s1`, the IC50 is 42.3 µM (inactive). The compound further showed a half-maximal inhibitory concentration (IC50) under setting [1] of 51.1 µM. The same compound displayed an IC90 under setting [2] above 100 µM. Under setting [3], this compound came in with an IC90 above 100 µM.

In the case of `Cc1cc(/C=N/NC(=O)CC#N)c(C)n1-c1ccc([N+](=O)[O-])cc1`, the concentration for half-maximal inhibition (IC50) is 10.2 µM. Under setting [1], this compound came in with a concentration for half-maximal inhibition (IC50) above 100 µM. Under setting [2], this compound registered an IC90 above 100 µM. Besides, the 90% effect concentration (IC90) under setting [3] is above 100 µM.

For the compound `O=C(Oc1c(-c2ccccc2Cl)oc2ccccc2c1=O)c1ccc(Cl)cc1`, the IC50 was 11 µM. This compound also showed a half-inhibitory concentration (IC50) under setting [1] of 47.5 µM. Further, under setting [2], the IC90 is above 100 µM. The same compound had a 90% effect concentration (IC90) under setting [3] above 50 µM.

On to `CCN(CC(=O)Nc1ccccc1OC)C(=O)c1cc(S(=O)(=O)N2CCCCCC2)ccc1OC`, for which the IC50 is > 100 µM (inactive). Moreover, the IC50 under setting [1] was above 100 µM. The compound further returned an IC90 under setting [2] above 100 µM. Under setting [3], this compound had an IC90 above 100 µM.

`Cc1ccnn1CC(=O)N/N=C/c1ccc([N+](=O)[O-])s1`: the IC50 is 91.5 µM (inactive). Moreover, the IC50 under setting [1] worked out at 88.5 µM. Under setting [2], the concentration for an effect of 90% (IC90) is 95.9 µM. The compound also had a concentration for an effect of 90% (IC90) under setting [3] above 100 µM.

Consider `CC(C)(C)c1ccc(C(=O)Oc2ccc3c(c2)OCC3=O)cc1`, for which the IC50 is 8.64 µM. The compound further came in with an IC50 under setting [1] above 100 µM. The compound also had an IC90 under setting [2] above 100 µM. For the same compound, the 90% effect concentration (IC90) under setting [3] amounted to 29.4 µM.

Turning to `CCOc1ccc(-c2nc(-c3ccccc3C)no2)cc1`, the IC50 is > 100 µM (inactive). The IC50 under setting [1] is above 100 µM. Under setting [2], this compound came in with an IC90 above 100 µM. The compound further gave an IC90 under setting [3] above 100 µM.

For the compound `Cc1ccc(CN2CCSc3ccc(C(=O)NC4CCN(Cc5ccccc5)CC4)cc32)cc1`, the IC50 was > 100 µM (inactive). In addition, the concentration for half-maximal inhibition (IC50) under setting [1] was above 100 µM. Besides, the IC90 under setting [2] was above 100 µM. Besides, under setting [3], the 90% effect concentration (IC90) was above 100 µM.

On to `CCC(CC)C(=O)Nc1ccc(Sc2ccc([N+](=O)[O-])cc2)cc1`, for which the IC50 is > 100 µM (inactive). Further, the IC50 under setting [1] is above 100 µM. In addition, the IC90 under setting [2] is above 100 µM. Under setting [3], this compound displayed a concentration for an effect of 90% (IC90) above 100 µM.

On to `C/C(=N\NC(=O)c1cccc(Cl)c1)c1cccc(NC(=O)C(C)C)c1`, for which the IC50 is > 100 µM (inactive). Also, under setting [1], the IC50 was above 100 µM. In addition, under setting [2], the IC90 is above 100 µM. This compound also had a 90% effect concentration (IC90) under setting [3] above 100 µM.

Regarding `O=C(Cc1cccc2ccccc12)N/N=C/c1ccc(O)c([N+](=O)[O-])c1`, the IC50 was 17.3 µM (inactive). Under setting [1], this compound gave an IC50 of 27.2 µM. Further, the 90% effect concentration (IC90) under setting [2] amounted to 47.2 µM. This compound also displayed a 90% effect concentration (IC90) under setting [3] of 31.6 µM.

`CC1=NN(c2ccccc2)C(=O)/C1=C/c1c(O)[nH]c(=S)[nH]c1=O`: the IC50 is > 100 µM (inactive). Under setting [1], the concentration for half-maximal inhibition (IC50) was above 100 µM. For the same compound, the IC90 under setting [2] is above 100 µM. The compound further had an IC90 under setting [3] above 100 µM.

On to `Nc1ncnc2c1c(-c1ccc(Oc3ccccc3)cc1)cn2C1CCCC1`, for which the IC50 was 17.1 µM (inactive). For the same compound, the 50% inhibitory concentration (IC50) under setting [1] is 26.4 µM. Besides, under setting [2], the IC90 was 42.5 µM. Under setting [3], the IC90 came to 60.3 µM.

As for `Cc1nnnn1/C(=C\c1ccccc1)C(=O)OCC(=O)Nc1ccc(Cl)cc1F`, the IC50 is 17 µM (inactive). For the same compound, under setting [1], the IC50 turned out to be 26.7 µM. In addition, under setting [2], the IC90 came to 35.8 µM. The concentration for an effect of 90% (IC90) under setting [3] amounted to 25.5 µM.

For `CCc1cc2c(Sc3nc4ccccc4s3)ncnc2s1`, the IC50 is 50.6 µM (inactive). The IC50 under setting [1] was found to be 90.1 µM. Moreover, the IC90 under setting [2] is above 100 µM. Under setting [3], the IC90 is above 100 µM.

For the compound `CN(C)S(=O)(=O)c1ccc(C(=O)OCC2CC2(Cl)Cl)cc1` (configuration not stated), the IC50 is > 100 µM (inactive). This compound also came in with a concentration for half-maximal inhibition (IC50) under setting [1] above 100 µM. For the same compound, the 90% effect concentration (IC90) under setting [2] is above 100 µM. The compound further displayed a 90% effect concentration (IC90) under setting [3] above 100 µM.

On to `c1ccc(-c2noc(-c3cccc4ccccc34)n2)cc1`, for which the IC50 was 20.2 µM. Also, the IC50 under setting [1] is above 100 µM. Further, under setting [2], the concentration for an effect of 90% (IC90) is above 100 µM. Under setting [3], the IC90 was above 100 µM.
